Laboratory results as given in PMC2263054, “Functional evolution of the vitamin D and pregnane X receptors” (BMC Evolutionary Biology, 2007).

Assays:
[1] = biological target: T1, Xenopus laevis VDR (Xenopus laevis, UniProt O13124); test: luciferase reporter transactivation assay in HepG2-NTCP cells, GAL4/xlVDR LBD chimera with tk-UAS-Luc; assay type: cell-based; conditions: for Xenopus VDR EC50 ± SD: HepG2-NTCP cells, luciferase reporter, unit not given, also cells saying No effect
T1 sequence (O13124 90-422): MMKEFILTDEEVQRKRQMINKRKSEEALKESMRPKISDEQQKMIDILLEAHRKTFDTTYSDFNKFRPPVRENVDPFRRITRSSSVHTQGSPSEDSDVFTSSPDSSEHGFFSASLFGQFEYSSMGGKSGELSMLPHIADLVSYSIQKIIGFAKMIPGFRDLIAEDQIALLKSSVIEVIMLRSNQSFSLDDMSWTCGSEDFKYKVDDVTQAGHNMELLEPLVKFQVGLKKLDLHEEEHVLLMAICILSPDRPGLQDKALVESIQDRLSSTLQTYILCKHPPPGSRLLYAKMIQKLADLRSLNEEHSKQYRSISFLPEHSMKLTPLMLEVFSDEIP

[2] = biological target: T2, Mouse VDR (Mus musculus, UniProt P48281); test: luciferase reporter transactivation assay in HepG2-NTCP cells, full-length mVDR with CYP3A4-PXRE-Luc; conditions: HepG2-NTCP cells, luciferase reporter; unit not given; also cells saying No effect
T2 sequence (P48281 1-422): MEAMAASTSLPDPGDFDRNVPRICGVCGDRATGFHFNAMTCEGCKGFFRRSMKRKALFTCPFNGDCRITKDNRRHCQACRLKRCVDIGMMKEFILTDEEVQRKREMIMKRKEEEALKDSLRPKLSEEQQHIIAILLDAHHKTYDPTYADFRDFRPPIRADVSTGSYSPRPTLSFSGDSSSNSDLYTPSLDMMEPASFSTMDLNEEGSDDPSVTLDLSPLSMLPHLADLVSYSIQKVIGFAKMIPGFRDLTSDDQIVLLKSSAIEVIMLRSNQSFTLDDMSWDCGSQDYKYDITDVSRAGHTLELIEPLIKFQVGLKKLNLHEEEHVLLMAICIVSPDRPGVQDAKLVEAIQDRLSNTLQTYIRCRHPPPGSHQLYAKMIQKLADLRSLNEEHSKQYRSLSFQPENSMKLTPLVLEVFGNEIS

[3] = test system: 6β- and 12α-hydroxylation of testosterone; test: testosterone hydroxylation (HPLC) in African clawed frog primary hepatocytes; assay type: cell-based, Xenopus laevis; conditions: relative to vehicle control
Method: Xenopus laevis primary hepatocytes were cultured by a protocol adapted from a published report. Frogs are sacrificed with MS-222, rinsed with 70% ethanol, and the liver lobes perfused via the heart, initially with 375 mL Barth (88 mM NaCl, 1 mM K2SO4, and 10 mM HEPES-NaOH, pH 7.4) containing 0.82 mM MgCl2 and 0.1 mg/mL heparin, and then with 25 mL Barth containing 2.22 mM Ca(NO3)2, 2.74 mM CaCl2, and 200 U/mL type I collagenase (Worthington Chemicals, Lakewood, NJ). Livers are minced to fine pieces in 12.5 mL Barth-collagenase solution and then incubated for 10 min at room temperature, periodically disaggregating the liver pieces with a Pasteur pipette. The liver cells are then placed on a shaking incubator for 5 min at room temperature, followed by another 10 min of periodic pipetting to complete disaggregation. Cells are then filtered through a 130 μm Nitex nylon mesh (Fisher Scientific), following by spinning at 500 g for 5 min at 4°C. The supernatant is then aspirated and diluted to 50 mL with Barth plus MgCl2 and then allowed to settle while cooled in ice for 30 min. The supernatant is removed, and the cellular pellet is resuspended and subjected to one more round of nylon mesh filtration, dilution in Barth plus MgCl2, and settling while cooled in ice. The supernatant is removed and the remaining cells are washed once with Barth plus MgCl2 and then centrifuged at 500 g for 5 min at 4°C. The cells are then resuspended in 0.6 × Coon's Modified Ham's F-12 medium (Invitrogen) supplemented with 0.1 × Barth (88 mM NaCl, 1 mM K2SO4, 10 mM HEPES), 200 U/mL penicillin G, 100 μg/mL streptomycin sulfate, 2 mM glutamine, 0.2% glucose, and 10 μg/mL bovine insulin (Calbiochem), with the final pH adjusted to 7.5. […] Cells are cultured at 20°C in ambient atmosphere.
Testosterone metabolites were identified and quantitated by HPLC. […] The supernatant was then injected into the HPLC.

[4] = biological target: T3, Sea lamprey VDR (Petromyzon marinus, UniProt Q7ZZY9); assay type: cell-based; conditions: for Sea lamprey VDR EC50 ± SD: HepG2-NTCP cells, luciferase reporter, unit not given, also cells saying No effect
T3 sequence (Q7ZZY9 92-406): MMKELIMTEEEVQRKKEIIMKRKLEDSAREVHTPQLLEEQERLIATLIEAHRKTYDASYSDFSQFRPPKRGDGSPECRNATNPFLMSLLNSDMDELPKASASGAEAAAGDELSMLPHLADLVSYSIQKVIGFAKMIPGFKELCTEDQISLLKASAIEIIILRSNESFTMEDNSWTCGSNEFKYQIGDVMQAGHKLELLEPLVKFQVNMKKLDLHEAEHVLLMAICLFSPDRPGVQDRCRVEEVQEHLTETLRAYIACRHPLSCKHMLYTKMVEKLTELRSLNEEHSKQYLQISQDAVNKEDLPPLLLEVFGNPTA

[5] = test system: flurbiprofen 4-hydroxylation activity (CYP2C-like activity); conditions: zebrafish primary hepatocytes, 48-hour exposure; TCDD 1 nM, androstanol 200 μM
[6] = biological target: T4, Human VDR (Homo sapiens, UniProt P11473); test: luciferase reporter transactivation assay in HepG2-NTCP cells, full-length hVDR with CYP3A4-PXRE-Luc; conditions: HepG2-NTCP cells, luciferase reporter; unit not given; also cells saying No effect
T4 sequence (P11473 1-427): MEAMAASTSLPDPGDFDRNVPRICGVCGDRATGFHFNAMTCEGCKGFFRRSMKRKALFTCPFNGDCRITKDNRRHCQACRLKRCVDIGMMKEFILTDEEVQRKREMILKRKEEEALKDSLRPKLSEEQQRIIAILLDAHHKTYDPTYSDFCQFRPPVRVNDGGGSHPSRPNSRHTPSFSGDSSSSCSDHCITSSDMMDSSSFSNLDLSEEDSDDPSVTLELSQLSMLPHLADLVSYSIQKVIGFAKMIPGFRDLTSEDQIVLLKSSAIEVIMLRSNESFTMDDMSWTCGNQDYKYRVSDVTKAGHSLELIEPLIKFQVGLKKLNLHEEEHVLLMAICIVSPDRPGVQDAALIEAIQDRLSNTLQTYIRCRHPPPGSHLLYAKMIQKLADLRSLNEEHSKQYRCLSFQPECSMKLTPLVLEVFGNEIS

[7] = biological target: T5, Zebrafish VDR (Danio rerio, UniProt Q9PTN2); test: luciferase reporter transactivation assay in HepG2-NTCP cells, GAL4/zfVDR LBD chimera with tk-UAS-Luc; assay type: cell-based; conditions: for Zebrafish VDR EC50 ± SD: HepG2-NTCP cells, luciferase reporter, unit not given, also cells saying No effect
T5 sequence (Q9PTN2 121-453): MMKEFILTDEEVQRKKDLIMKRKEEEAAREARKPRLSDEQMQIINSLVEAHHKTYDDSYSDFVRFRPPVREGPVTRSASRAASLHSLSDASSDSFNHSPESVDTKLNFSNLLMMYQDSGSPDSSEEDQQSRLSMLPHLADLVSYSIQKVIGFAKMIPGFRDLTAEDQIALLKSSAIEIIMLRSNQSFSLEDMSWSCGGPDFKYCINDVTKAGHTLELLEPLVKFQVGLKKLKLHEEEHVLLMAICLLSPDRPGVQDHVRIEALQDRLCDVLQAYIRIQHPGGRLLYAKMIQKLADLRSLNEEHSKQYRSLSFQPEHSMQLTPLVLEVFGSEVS

[8] = test system: EROD activity; test: EROD assay in sea lamprey primary hepatocytes; conditions: 24–48 hr exposure
[9] = test system: zebrafish PXR; conditions: luciferase reporter in HepG2 cells, normalized to 20 μM androstanol
[10] = test system: EROD activity; test: EROD assay in African clawed frog primary hepatocytes; assay type: cell-based, Xenopus laevis; conditions: 48 hour exposure
Method: Xenopus laevis primary hepatocytes were cultured by a protocol adapted from a published report. Frogs are sacrificed with MS-222, rinsed with 70% ethanol, and the liver lobes perfused via the heart, initially with 375 mL Barth (88 mM NaCl, 1 mM K2SO4, and 10 mM HEPES-NaOH, pH 7.4) containing 0.82 mM MgCl2 and 0.1 mg/mL heparin, and then with 25 mL Barth containing 2.22 mM Ca(NO3)2, 2.74 mM CaCl2, and 200 U/mL type I collagenase (Worthington Chemicals, Lakewood, NJ). Livers are minced to fine pieces in 12.5 mL Barth-collagenase solution and then incubated for 10 min at room temperature, periodically disaggregating the liver pieces with a Pasteur pipette. The liver cells are then placed on a shaking incubator for 5 min at room temperature, followed by another 10 min of periodic pipetting to complete disaggregation. Cells are then filtered through a 130 μm Nitex nylon mesh (Fisher Scientific), following by spinning at 500 g for 5 min at 4°C. The supernatant is then aspirated and diluted to 50 mL with Barth plus MgCl2 and then allowed to settle while cooled in ice for 30 min. The supernatant is removed, and the cellular pellet is resuspended and subjected to one more round of nylon mesh filtration, dilution in Barth plus MgCl2, and settling while cooled in ice. […]

[11] = test system: testosterone 6β-hydroxylation activity (CYP3A-like activity); test: testosterone hydroxylation (HPLC) in zebrafish primary hepatocytes
Method: (§1) The cells are cultured at 26°C in ambient atmosphere.
(§2) 100 μL of sample, calibration standard, or quality material standard were pipetted into separate microcentrifuge tubes and mixed with 100 μL of methanol. Samples were vortexed and centrifuged at 13,000 rpm for 4 min. The supernatant was then injected into the HPLC.
(§3) The flow rate was 1.2 mL/min and total run time was 25 min.

[12] = test system: ethoxyresorufin O-deethylase (EROD) activity (CYP1A-like activity); test: EROD assay in zebrafish primary hepatocytes; conditions: for maximal rate of EROD activity: zebrafish primary hepatocytes, 24 hour exposure (Figure 3 legend: 48-hour)
Method: as §1

[13] = test system: testosterone 6β-hydroxylation; test: testosterone hydroxylation (HPLC) in sea lamprey primary hepatocytes; assay type: cell-based; conditions: concentration ranges per compound
Method: as §2, §3

[14] = test system: Ciona VDR/PXR
[15] = test system: Flurbiprofen 4-hydroxylation; test: flurbiprofen hydroxylation assay in sea lamprey primary hepatocytes; assay type: cell-based; conditions: 48 hour treatment, 5α-petromyzonol 20 μM, 3-MC 5 μM, basal 2.8
[16] = screening for activators, at least three concentrations of each drug

| Structure (SMILES) | Xenopus VDR EC50 ± SD [1] | Mouse VDR EC50 ± SD [2] | Sea lamprey VDR EC50 ± SD [4] | Human VDR EC50 ± SD [6] | Zebrafish VDR EC50 ± SD [7] | effect on EROD activity [8] | maximal rate of EROD activity [12] [pmol/min/mg protein] | effect on testosterone 6β-hydroxylation [13] | Flurbiprofen 4-hydroxylation activity [15] [nmol/min/mg protein] | further results |
| --- | --- | --- | --- | --- | --- | --- | --- | --- | --- | --- |
| Clc1cc2c(cc1Cl)Oc1cc(Cl)c(Cl)cc1O2 [2,3,7,8-Tetrachlorodibenzo-p-dioxin, 2,3,7,8-tetrachlorodibenzo-p-dioxin] | No effect | No effect | No effect | No effect | No effect | did not alter EROD activity | 33.0 | None of these compounds produced significant increases in testosterone 6β-hydroxylation | – | effect on 6β- and 12α-hydroxylation of testosterone [3]: neither activity was substantially increased relative to vehicle control; effect on flurbiprofen 4-hydroxylation activity [5]: Lesser increases relative to vehicle control; activation of recombinant zebrafish PXR [9]: all activate recombinant zebrafish PXR; maximal rate of EROD activity [10]: 9.8 pmol/min/mg protein; EC50 ([10]; Xenopus laevis, Hepatocyte, read-out: EC50 for increase of EROD activity): 6.5 ± 0.77 nM; EC50 at 48 h ([11]; zebrafish): 0.154 ± 0.03 nM; maximal rate of testosterone 6β-hydroxylation ([11]; zebrafish primary hepatocytes, 48-hour exposure): 2830 pmol/min/mg protein; EC50 at 24 h ([12]; zebrafish, pH 7.8): 0.15 ± 0.022 nM; Ciona VDR/PXR relative efficacy ([14]; relative to maximal reference compound (20 μM 6-formylindolo-[3,2-b]-carbazole, efficacy = 1.0)): 1.80; activation of ciVDR/PXR ([14]; unpublished data of the authors): activated |
| Cc1ccc2cc3c(ccc4ccccc43)c3c2c1CC3 [3-Methylcholanthrene] | – | – | – | – | – | did not alter EROD activity | 28.1 | None of these compounds produced significant increases in testosterone 6β-hydroxylation | 0.33 | Effect on Xenopus laevis VDR [1, 16]: No effect; Effect on sea lamprey VDR [4, 16]: No effect; Effect on zebrafish VDR [7, 16]: No effect; EC50 ([12]; zebrafish, pH 7.8): 373 ± 22 nM |
| C[C@H](CCCO)[C@H]1CC[C@H]2[C@@H]3[C@H](O)C[C@H]4C[C@H](O)CC[C@]4(C)[C@H]3C[C@H](O)[C@]12C [5α-Petromyzonol, 5α-cholan-3α,7α,12α,24-tetrol] | No effect | No effect | No effect | No effect | No effect | did not alter EROD activity | – | None of these compounds produced significant increases in testosterone 6β-hydroxylation | 0.21 | Ciona VDR/PXR EC50 ± SD ([14]; HepG2-NTCP cells, luciferase reporter, unit not given, also cells saying No effect): No effect |
